# Experimental data taken from PMC10709440, “High-throughput ligand profile characterization in novel cell lines expressing seven heterologous insect olfactory receptors for the detection of volatile plant biomarkers” (Scientific Reports, 2023).
# Read-outs that look alike come from different tables or passages of the source.
# Assays:
# [1] = target: T1, Drosophila OR85b (Drosophila melanogaster, UniProt Q9VHQ7); experiment: Calcium ion fluorescence (GCaMP6) assay, OR85b stable HEK293 cell line; format: cell-based; conditions: for activation at 1 µM / activation at 10 µM / activation at 100 µM: HEK293, read-out: OR85b response (VUAA1-normalized response); for Average response: OR85b cell line, VUAA1-normalized response, mean of biological replicates; for DF norm AVERAGE OR85b: normalized fluorescence change, values below 0.05 threshold given as 0
# T1 construct: expressed in transfected cells
# T1 sequence (Q9VHQ7 1-390): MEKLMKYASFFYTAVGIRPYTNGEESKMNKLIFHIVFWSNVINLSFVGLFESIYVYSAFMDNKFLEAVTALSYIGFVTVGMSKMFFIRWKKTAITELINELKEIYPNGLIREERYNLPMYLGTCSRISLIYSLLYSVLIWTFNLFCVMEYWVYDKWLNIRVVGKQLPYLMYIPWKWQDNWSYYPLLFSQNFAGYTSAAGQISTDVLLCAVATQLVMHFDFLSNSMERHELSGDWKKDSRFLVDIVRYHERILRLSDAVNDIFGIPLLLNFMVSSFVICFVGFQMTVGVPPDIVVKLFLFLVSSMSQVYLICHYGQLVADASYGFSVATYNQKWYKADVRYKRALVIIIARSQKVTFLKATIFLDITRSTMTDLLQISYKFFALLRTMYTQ
# T1 sequence (Q9VNB5 1-486 partner): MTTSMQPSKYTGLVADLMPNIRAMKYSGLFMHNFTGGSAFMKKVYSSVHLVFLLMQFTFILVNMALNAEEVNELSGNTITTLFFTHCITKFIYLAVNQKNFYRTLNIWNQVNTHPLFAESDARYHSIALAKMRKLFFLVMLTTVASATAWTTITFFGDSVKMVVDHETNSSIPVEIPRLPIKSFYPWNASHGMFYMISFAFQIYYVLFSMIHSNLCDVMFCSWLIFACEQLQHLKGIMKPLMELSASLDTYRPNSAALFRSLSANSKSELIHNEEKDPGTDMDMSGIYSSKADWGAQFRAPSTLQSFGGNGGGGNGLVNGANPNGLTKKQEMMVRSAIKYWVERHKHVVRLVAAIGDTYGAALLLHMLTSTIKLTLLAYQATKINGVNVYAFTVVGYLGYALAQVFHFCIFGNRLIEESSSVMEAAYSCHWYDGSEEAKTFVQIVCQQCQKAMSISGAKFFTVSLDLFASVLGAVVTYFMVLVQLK
# Procedure: These VUAA1 normalized ∆F values were used to compare the different receptors and ligands.
# The concentration-dependent effect of the reference ligands on their cognate cell lines was examined in more detail. Twelve different ligand concentrations were measured on each cell line in an overall 0.01 μM to 100 μM concentration range with 5 repetitions with three technical replicates each time.
# Twelve thousand to 18,000 cells were plated into each well of a black wall, transparent bottom 384-well microplate (Greiner) 48 h or 72 h before the measurements and were simultaneously treated with 1 μg/mL doxycycline. […] The plate has 24 columns, thus we could record responses in up to eight different cell lines in each plate. On the day of the experiment, the growth medium was replaced with 20 µL assay buffer/well (140 mM NaCl, 5 mM KCl, 2 mM CaCl2, 1 mM MgCl2, 5 mM HEPES-Na, 20 mM glucose, pH 7.3, 340 mOsm). […] Baseline fluorescence (F0) was recorded for 5 s, after which 7 µL VOC buffer (140 mM NaCl, 5 mM KCl, 2 mM CaCl2, 1 mM MgCl2, 5 mM HEPES-Na, 31 mM glucose, 0.1% DMSO, pH 7.3, 340 mOsm) was injected into each well in one row and the fluorescence response was recorded for an additional 30 s, at a rate of one read/sec. VOC solutions (VOC buffer with 4× concentration of the final measured VOC concentration, 9 µL/well was injected) were measured on the same wells in a second round with the same protocol. Each individual concentration of a specific VOC sample was recorded in three wells for the same cell line on the same microplate. The raw data were exported in xls file format, F0 and FMAX values, and the fluorescence intensity changes (∆F) were calculated in Excel (Microsoft) (Supplementary file Data summary.xlsx) using the following equation: ΔF=FMAX-F0/F0 (see also Fig. 1C). On each plate, we recorded the response of each cell line to 50 µM VUAA1. The average of these ∆F values of each cell line were used to calculate the VUAA1-normalized values for the rest of the plate, by dividing VOC response ∆F values by the average VUAA1 response ∆F value of the corresponding OR cell line. Each VOC-OR combination was measured three times as technical replicates. […] The average of these replicates were used as one ∆F and VUAA1-normalized ∆F in the following analysis.
# In the next rows we tested the reference VOCs (or other VOCs known to activate the corresponding cell lines), in order to test if all cell lines are responsive. The remaining rows were used to test VOCs with unknown effect.
# The recorded FMAX, F0, ∆F, VUAA1-normalized ∆F values, as well as the OR name, the name of the tested sample, and the final concentration for each well were copied into supplementary file Data summary.xlsx, that was used to summarize all the plates recorded. Here, the averages of the measurements were calculated for each receptor-VOC-concentration combination.
# [2] = target: T2, Drosophila OR10a (Drosophila melanogaster, UniProt Q9VYZ1); experiment: Calcium ion fluorescence (GCaMP6) assay, OR10a stable HEK293 cell line; format: cell-based
# T2 construct: expressed in transfected cells
# T2 sequence (Q9VYZ1 1-406): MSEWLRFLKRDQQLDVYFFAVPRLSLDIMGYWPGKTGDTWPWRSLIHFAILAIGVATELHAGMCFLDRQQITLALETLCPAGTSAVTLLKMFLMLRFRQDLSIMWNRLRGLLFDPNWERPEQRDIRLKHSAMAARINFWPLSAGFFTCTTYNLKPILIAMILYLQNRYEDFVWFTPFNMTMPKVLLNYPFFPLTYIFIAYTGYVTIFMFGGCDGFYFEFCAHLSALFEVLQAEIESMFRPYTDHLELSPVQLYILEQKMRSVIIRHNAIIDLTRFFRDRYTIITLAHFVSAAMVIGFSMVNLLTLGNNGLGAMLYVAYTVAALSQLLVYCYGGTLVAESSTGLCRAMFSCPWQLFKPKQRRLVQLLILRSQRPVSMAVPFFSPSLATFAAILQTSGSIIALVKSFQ
# T2 sequence (Q9VNB5 1-486 partner): T1 sequence (Q9VNB5 1-486 partner)
# Procedure, shortened: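 HEK293 lines stably expressing each Drosophila OR with GCaMP6, doxycycline-induced (1 μg/mL) 48 or 72 h. Fluorescence recorded 5 s baseline then 30 s after VOC injection at pH 7.3; ΔF=(FMAX−F0)/F0, normalized to 50 µM VUAA1 response per line, triplicate wells averaged; concentration series 0.01–100 μM.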
# [3] = HEK293, read-out: OR10a response (VUAA1-normalized response), VOC concentration 1 μM
# [4] = HEK293, read-out: OR10a response (VUAA1-normalized response), VOC concentration 10 μM
# [5] = HEK293, read-out: OR10a response (VUAA1-normalized response), VOC concentration 100 μM
# [6] = concentration 10, normalized fluorescence change, values below 0.05 threshold given as 0
# [7] = concentration 100, normalized fluorescence change, values below 0.05 threshold given as 0
# [8] = HEK293, 1 μM VOC, 50 μM VUAA1 = 1, responses not exceeding 0.05 considered 0, read-out: OR10a Average response (VUAA1-normalized)
# [9] = HEK293, 10 μM VOC, 50 μM VUAA1 = 1, responses not exceeding 0.05 considered 0, read-out: OR10a Average response (VUAA1-normalized)
# [10] = HEK293, 100 μM VOC, 50 μM VUAA1 = 1, responses not exceeding 0.05 considered 0, read-out: OR10a Average response (VUAA1-normalized)
Compound,activation at 1 µM [1] [%],activation at 10 µM [1] [%],activation at 100 µM [1] [%],Average response ([1]; cc. 1 µM),Average response ([1]; cc. 10 µM),Average response ([1]; cc. 100 µM),DF norm AVERAGE OR85b ([1]; concentration 1),DF norm AVERAGE OR85b ([1]; concentration 10),DF norm AVERAGE OR85b ([1]; concentration 100),"activation at 1 µM [2, 3] [%]","activation at 10 µM [2, 4] [%]","activation at 100 µM [2, 5] [%]","activation at 1 µM [2, 8] [%]","activation at 10 µM [2, 9] [%]","activation at 100 µM [2, 10] [%]",other results
CC1=CCC2C(C1)C2(C)C (stereo not shown) [3-carene],0,0,0,0.00,0.00,0.00,0,0,0,7,0,0,,,,"activation at 1 µM ([2]; HEK293, read-out: OR10a Average response (VUAA1-normalized), 1 μM VOC, 50 μM VUAA1 = 1, responses not exceeding 0.05 considered 0): 7%; activation at 10 µM ([2]; HEK293, read-out: OR10a Average response (VUAA1-normalized), 10 μM VOC, 50 μM VUAA1 = 1, responses not exceeding 0.05 considered 0): 0%; activation at 100 µM ([2]; HEK293, read-out: OR10a Average response (VUAA1-normalized), 100 μM VOC, 50 μM VUAA1 = 1, responses not exceeding 0.05 considered 0): 0%; DF norm AVERAGE OR10a ([2]; concentration 1, normalized fluorescence change, values below 0.05 threshold given as 0): 0.0692; DF norm AVERAGE OR10a [2, 6]: 0; DF norm AVERAGE OR10a [2, 7]: 0"
CCCC(O)CC (stereo not shown) [3-hexanol],0,10,0,0.00,0.10,0.0225,0,0.09908,0,16,0,6,16,2.57,6,
Cc1cccc(O)c1 [3-methylphenol],0,0,0,0.0267,0.0173,0.02,0,0,0,9,6,13,9,6,13,
CCCCCC(O)CC (stereo not shown) [3-octanol],0,0,0,0.00,0.00,0.0171,0,0,0,0,6,6,0,6,6,"DF norm AVERAGE OR10a [2]: 0; DF norm AVERAGE OR10a [2, 6]: 0.05884; DF norm AVERAGE OR10a [2, 7]: 0.05921"
CCCCCC(=O)CC [3-octanone],0,0,9,0.00,0.00,0.09,0,0,0.08805,0,10,0,2,10,2.65,
Cc1ccc(O)cc1 [4-methylphenol],0,0,0,0.00,0.04,0.00,0,0,0,0,0,6.62,2.37,1.81,6.62,
"C=CC(O)C/C=C\CC (stereo not shown) [(5Z)-octa-1,5-dien-3-ol]",7,9,0,0.07,0.09,0.00,0.07163,0.08739,0,0,0,0,0,2.25,0,DF norm AVERAGE OR10a [2]: 0
